Test system: 2,985 participants free of prevalent diabetes at baseline
Assay: Cardiovascular Health Study: plasma phospholipid fatty acids and incident diabetes mellitus (Cox proportional-hazards)
Format: in vivo, human
Conditions: per each higher SD of the plasma phospholipid fatty acid; multivariable-adjusted (covariates as in Table 4)
Procedure: Plasma phospholipid fatty acids, anthropometry, blood lipids, inflammatory markers, and glucose-insulin levels were measured at baseline using standardized methods. Independent determinants of trans-palmitoleate and relationships of trans-palmitoleate with metabolic risk factors were investigated using multivariable-adjusted linear regression.
Multivariable model adjusted for age (years), gender (male/female), race (white/nonwhite), education (<high school, high school, some college, college graduate), enrollment site (four sites), smoking (never, former, current), body mass index (kg/m^2), waist circumference (cm), coronary heart disease (yes/no), physical activity (kcal/wk), alcohol use (six categories), and consumption of carbohydrate (% energy), protein (% energy), red meat (servings/week), whole-fat dairy foods (6 categories), low-fat dairy foods (five categories), and total energy (kcal/d).
Participants were followed by means of annual examinations for 10 years with interim and subsequent 6-month telephone contacts. Ives et al., 5 Ann. Epidemiol. […] At each visit, detailed medication information was obtained using medication inventories. At baseline, study interviewers visited participants in their homes and asked to see all prescription medications they had taken in the previous 2 weeks. At follow-up exams, participants brought to clinic all prescription medications taken in the previous 2 weeks. Drug names, doses, and frequencies were coded according to prescription medication Medispan files.
Relationships between phospholipid fatty acids were evaluated using Spearman correlation. Trans-palmitoleate levels were evaluated in sex-specific quintiles as indicator variables and continuously per SD difference. Independent demographic and lifestyle determinants of trans-palmitoleate were evaluated using multivariable-adjusted linear regression with trans-palmitoleate as the dependent variable. Multivariable-adjusted relationships of trans-palmitoleate with metabolic risk factors (transformed for normality as appropriate) were evaluated using linear regression with trans-palmitoleate as the independent variable. Quintiles were evaluated as ordinal variables to assess trend, to assess effect modification using the Wald test for a multiplicative interaction term, and to assess differences in baseline characteristics by means of linear or logistic regression. […] To minimize potential confounding, covariates were selected based on biologic interest, being well-established risk factors for metabolic risk, or associations with exposures/outcomes in the present cohort. […] Analyses were performed using Stata10.1 (College Station, Tex.), two-tailed alpha=0.05.

Row | Compound | RR of diabetes per SD
1 | CCCCCCCCCCCCCCC(=O)O [15:0, pentadecanoic acid, reference compound] | 1.01
2 | CCCCCCCCCCCCCCCCC(=O)O [17:0, reference compound] | 0.98

— patent US9987243B2, “Use of trans-palmitoleate in identifying and treating metabolic disease” (Trustees of Tufts College, priority 2010, dated 2018)
